The source of these data is patent publication US9708370B2, “Azapeptides as CD36 binding compounds” (VALORISATION-RECHERCHE, LIMITED PARTNERSHIP, priority 2007, dated 2017).

Assay [1] deals with CD36 (Rattus norvegicus (Rat), UniProt Q07969). The assay can be described thus: CD36 receptor covalent photolabelling binding assay, competition with [125I]Tyr-Bpa-Ala-hexarelin on rat cardiac membranes. To be noted: for binding activity/affinity at CD36 in words: compared with parent peptide GHRP-6 or hexarelin. The protocol: The hearts from Sprague Dawley rats (300 g-325 g) from Charles River, used as a source of cardiac membranes, were prepared as follows: the heart was washed with ice-cold saline, and fatty and connective tissue was removed. The tissue was cut into small pieces with scissors and placed in a Sorvall centrifuge tube containing 5 ml/g of fresh tissue of Buffer A (10 mM NaHCO3, 5 mM NaN3, 10 μM Pefabloc, 0.1 μM Aprotinin, 1 μM Pepstatin A, 1 μM Leupeptin, pH 7.0). The suspension was homogenized with a Polytron at low speed, 3×15 sec. The homogenate was centrifuged at 8 700×g for 20 min and the supernatant was put on ice. The pellet was resuspended and homogenized with a Glass-teflon Potter by 5 strokes. The homogenate was centrifuged at 8 700×g for 10 min and this supernatant was combined with the first supernatant. The supernatant fluid was centrifuged at 35 000×g for 20 min, yielding a second pellet fraction that was suspended thoroughly in a glass homogenizer with a Teflon pestle in 20 ml/g of fresh tissue of Buffer B (20 mM Tris-maleate, 0.6M KCl, pH 6.8). The resulting suspension was centrifuged again at 35 000×g for 60 min. The third pellet fraction was resuspended thoroughly in a glass homogenizer with a Teflon pestle in 20 ml/g of fresh tissue of Buffer C (10 mM Tris/HCl buffer pH 7.4) followed with another centrifugation at 35 000×g for 60 min. The harvested precipitate was then suspended in a small volume (1-2 ml/g of fresh tissue) of 50 mM Tris/HCl buffer pH 7.4) containing 2 mM EGTA. The resulting membrane preparation was frozen at −80° C. Protein concentration was determined with bicinchoninic acid (BCA) method, using BSA as standard.
The iodination procedure was performed in the darkness. […] The reaction was started by adding 5 ul (3 nmol) of H2O2. The incubation was carried out at 22° C. for 5 min. The addition of H2O2 was repeated twice with 5 min incubation each time. The reaction was stopped with the addition of 1.4 ml of 0.1% TFA. The iodinated peptide was purified on a reverse-phase Vydac C18 column with a 60 min linear gradient (1 ml/min) from 20% to 50% acetonitrile (90%) in 0.1% TFA (10%).
Nonspecific binding was defined as binding not displaced by 50 μM corresponding peptide. All peptide containing solutions were diluted in Buffer B. Buffer A and B were degassed under vacuum, and used in capped tubes in order to minimize lipid peroxydation. Before the incubation period, all tubes were put under a low flow of nitrogen. All material was kept on ice and the binding assay was performed in darkness. After an incubation period of 60 min at 22° C. […] After centrifugation at 12 000×g for 15 minutes, the pellets were resuspended in 150 μl of sample buffer (62 mM Tris-HCl, pH 6.8, 2% SDS, 10% glycerol, 15% 2-mercapto-ethanol, and 0.05% bromophenol blue), and boiled for 5 min prior to being subjected to electrophoresis. Proteins (200 μg/100 μl) were separated on 7.5% SDS-PAGE (45 V overnight). The gels resulting from SDS/PAGE were fixed, colored in Coomassie Brilliant Blue R-250, dried, exposed to a storage phosphor intensifying screen (Amersham Biosciences), and analysed by using a Typhoon PhosphorImager (Amersham Biosciences) and ImageQuant 5.0 software to establish competition curves. Protein bands were quantified by densitometry. The covalent binding signal of 87 kDa was analyzed by densitometry using Typhoon Phospholmager™ (Typhoon, Amersham Biosciences) and ImageQuant 5.0® software to set competition curves.
Specific binding activities were defined as the ratio of the density of the protein band to that of a non-specific band. Results are expressed as the percentage of the density of the […] to that of the total binding band.

Assay [2] concerns the target human GHS-R1a (Homo sapiens (Human), UniProt Q92847). As to the kind of experiment: GHS-R1a binding assay, competition with 125I-ghrelin on membranes of LLC-PK1 cells expressing human GHS-R1a.
In assay [3] the test system is vascular sprouting of aortic endothelium (aortic rings). As to the kind of experiment: Inhibition of microvascular sprouting from Matrigel-embedded aortic explants. The assay is classed as cell-based, mice. To be noted: preliminary data; compared with GHRP-6. An excerpt: FIG. 1 illustrates disruption of vascular sprouting of aortic endothelium by azapeptide compound DBG178. Sprouting aortic endothelium (Von Willebrand factor positive) expressing CD36 is shown in the upper row of FIG. 1a. Vascular sprouting of aortic rings from C57BL/6 and CD36 null mice in the presence of DBG 178 at 10^−7M is shown in the lower row of FIG. 1a. Histograms of microvascular sprouts areas (mean±s.e.m) from aortic explants of C57BL/6 and CD36 null mice exposed to DBG concentrations from 10^−8 to 10^−6 M p<0.01 compared with control (Ctl) is shown in FIG. 1b.
Aortas were excised from 10-week-old male C57/Bl6+/+ and CD36−/− mice of C57/Bl6 background. The fibroadipose tissue was removed and aortas were sectioned into 2-mm-long cross-sections. The +/+ and −/− rings were covered by 50 μl of Matrigel and cultured for 4 days in EGM-2 medium (Clonetics Corp.). Explants were then exposed to vehicle alone or in presence of an azapeptide prototype DBG178 at the indicated concentrations (10^−8 to 10^−6 M) from day 4 to day 6 of culture in EGM-2 medium. Pictures of each individual explant were taken at day 4 and day 6 and EC growth was measured as the surface covered at day 6 minus the surface covered at day 4 Data were subject to analysis of variance (ANOVA) followed by Dunnet's post test to test for differences among groups. Outgrowing cells were characterized by double-labelling with monoclonal vWF antibody (1:100, Dako) and polyclonal CD36 (1:100, Santa Cruz) after acetone fixation using their respective alexa coupled secondary antibodies.

[4] abbreviates: Table 3, rat cardiac membranes, [125I]Tyr-Bpa-Ala-hexarelin as radioligand, read-out: IC50, binding affinity of aza peptide derivatives towards CD36.
[5] abbreviates: Table 4, LLCPK-1 membranes overexpressing GHS-R1a, radioiodinated (1-28) rat ghrelin as tracer, read-out: EC50 (text: IC50 values from competition curves in GHS-R1a radioreceptor assay).
Setting [6] is: Table 6, read-out: IC50 Binding CD36.
The mark [7] stands for this setting: Table 5, read-out: IC50 Binding GHS-R1a.

Where two headings read alike, the source gives them in different places. Starred links: 1 amine or outer side, 2 acyl side, 3 side chain; linkers in the order of their positions; H or OH if unused. Non-standard residues stand in square brackets, D forms with d. Residues, ends and D or L forms follow the SMILES beside them. *: point of attachment. azaTyr = O=C(N(Cc1ccc(O)cc1)N[*:1])[*:2]; azaPhe = O=C(N(Cc1ccccc1)N[*:1])[*:2]; azaLeu = CC(C)CN(N[*:1])C(=O)[*:2]; Hydrocinnamoyl = O=C(CCc1ccccc1)*; X1 = O=C(N(CC1CCCCC1)N[*:1])[*:2] Some results are limits rather than exact numbers.

Sequence of CD36 (Q07969 whole entry): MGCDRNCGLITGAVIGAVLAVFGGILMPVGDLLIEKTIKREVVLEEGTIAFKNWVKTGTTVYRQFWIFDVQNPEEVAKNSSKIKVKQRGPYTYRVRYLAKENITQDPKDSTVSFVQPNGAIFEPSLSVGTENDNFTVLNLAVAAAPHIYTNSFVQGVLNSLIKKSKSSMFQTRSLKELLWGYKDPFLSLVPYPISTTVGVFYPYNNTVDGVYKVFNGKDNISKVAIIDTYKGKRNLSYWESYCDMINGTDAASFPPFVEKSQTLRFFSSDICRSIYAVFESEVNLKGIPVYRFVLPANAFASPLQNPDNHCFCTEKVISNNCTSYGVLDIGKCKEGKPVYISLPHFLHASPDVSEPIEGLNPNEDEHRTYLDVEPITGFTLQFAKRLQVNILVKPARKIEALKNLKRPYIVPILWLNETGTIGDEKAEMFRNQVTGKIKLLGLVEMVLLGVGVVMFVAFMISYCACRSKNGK
Sequence of human GHS-R1a (Q92847 whole entry): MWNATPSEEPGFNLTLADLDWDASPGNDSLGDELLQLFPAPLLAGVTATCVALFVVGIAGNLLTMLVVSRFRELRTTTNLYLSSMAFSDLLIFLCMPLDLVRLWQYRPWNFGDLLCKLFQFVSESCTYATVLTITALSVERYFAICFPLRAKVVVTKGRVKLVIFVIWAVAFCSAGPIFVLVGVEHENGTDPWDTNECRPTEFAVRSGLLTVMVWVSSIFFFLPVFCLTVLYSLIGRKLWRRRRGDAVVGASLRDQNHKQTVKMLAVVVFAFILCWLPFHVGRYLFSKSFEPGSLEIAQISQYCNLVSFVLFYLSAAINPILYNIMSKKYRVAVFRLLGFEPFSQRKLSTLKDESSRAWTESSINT

Broadly, the IC50 is the concentration at which inhibition is half-maximal. For `CC(C)CN(NC(=O)[C@@H](Cc1c[nH]c2ccccc12)NC(=O)[C@@H](N)Cc1cnc[nH]1)C(=O)N[C@@H](Cc1c[nH]c2ccccc12)C(=O)N[C@H](Cc1ccccc1)C(=O)N[C@@H](CCCCN)C(N)=O` [DBG201-A, His-D-Trp-azaLeu-Trp-D-Phe-Lys-NH2] (H-H[dW][azaLeu]W[dF]K-NH2), the IC50 in assay [1] (setting [4]) was found to be 2.89 µM; in assay [2] (setting [5]) it was 1.2 µM. The “binding activity/affinity at CD36 in words” value in assay [1] was “retained significant activity similar to the parent peptide”. In assay [3], the “ex vivo inhibition of neovascularization in aortic rings” value is “most potent inhibitory effect”.

Regarding `C[C@H](NC(=O)[C@@H](Cc1c[nH]c2ccccc12)NC(=O)[C@@H](N)Cc1cnc[nH]1)C(=O)N[C@H](Cc1ccc(O)cc1)C(=O)N[C@H](Cc1ccccc1)C(=O)N[C@@H](CCCCN)C(N)=O` [DBG253-8, His-D-Trp-Ala-D-Tyr-D-Phe-Lys-NH2] (H-H[dW]A[dY][dF]K-NH2), the IC50 in assay [1] (setting [4]) was 12 µM; in assay [2] (setting [5]), 3.25 µM.

Turning to `C[C@H](NC(=O)N(Cc1ccccc1)NC(=O)[C@@H](N)Cc1cnc[nH]1)C(=O)N[C@@H](Cc1c[nH]c2ccccc12)C(=O)N[C@H](Cc1ccccc1)C(=O)N[C@@H](CCCCN)C(N)=O` [DBG253-9, His-azaPhe-Ala-Trp-D-Phe-Lys-NH2] (H-H[azaPhe]AW[dF]K-NH2), the IC50 stood at 72.4 µM in assay [1] (setting [4]) and 16.1 µM in assay [2] (setting [5]).

Regarding `C[C@H](NC(=O)N(CC1CCCCC1)NC(=O)[C@@H](N)Cc1cnc[nH]1)C(=O)N[C@@H](Cc1c[nH]c2ccccc12)C(=O)N[C@H](Cc1ccccc1)C(=O)N[C@@H](CCCCN)C(N)=O` [DBG253-13, His-azaCha-Ala-Trp-D-Phe- Lys-NH2] (H-H[X1]AW[dF]K-NH2), the IC50 in assay [1] (setting [4]) is above 10 µM; in assay [2] (setting [5]) it was 5.49 µM.

On to `C[C@H](NC(=O)[C@@H](Cc1c[nH]c2ccccc12)NC(=O)[C@@H](N)Cc1ccccc1)C(=O)NN(Cc1ccc(O)cc1)C(=O)N[C@H](Cc1ccccc1)C(=O)N[C@@H](CCCCN)C(N)=O` [ZS554-F29, Phe-D-Trp-Ala-azaTyr-D-Phe-Lys-NH2] (H-F[dW]A[azaTyr][dF]K-NH2), for which the values for the IC50 in assay [1] (setting [6]) and in assay [2] (setting [7]) were 11.8 µM and above 10 µM, respectively.

Consider `C[C@H](N)C(=O)N[C@H](Cc1c[nH]c2ccccc12)C(=O)N[C@@H](C)C(=O)NN(Cc1ccc(O)cc1)C(=O)N[C@H](Cc1ccccc1)C(=O)N[C@@H](CCCCN)C(N)=O` [ZS555-F40, Ala-D-Trp-Ala-azaTyr-D-Phe-Lys-NH2] (H-A[dW]A[azaTyr][dF]K-NH2), for which the IC50 in assay [1] (setting [6]) is 2.95 µM; in assay [2] (setting [7]), above 10 µM. Moreover, the “binding activity/affinity at CD36 in words” value in assay [1] was “without major change”. Further, the “binding affinity for GHS-R1a receptor in words” value in assay [2] (compared with GHRP-6) is “decreased drastically”.

As for `C[C@H](NC(=O)[C@@H](Cc1c[nH]c2ccccc12)NC(=O)CCc1ccccc1)C(=O)NN(Cc1ccc(O)cc1)C(=O)N[C@H](Cc1ccccc1)C(=O)N[C@@H](CCCCN)C(N)=O` [ZS556, Hydrocinnamyl-D-Trp-Ala-AzaTyr-D-Phe-Lys-NH2] (Hydrocinnamoyl-[dW]A[azaTyr][dF]K-NH2), the IC50 is 32.5 µM in assay [1] (setting [6]) and above 10 µM in assay [2] (setting [7]).
